From patent US12653827B2, “Methods of treating indolent systemic mastocytosis” (Telios Pharma Inc., priority 2024, dated 2026) come the findings set out here.

In assay [1] the test system is basophils. The experiment in a line: BAT (CD63) on blood of dosed ISM patients. Format: in vivo, human. The method, then:
The BAT was conducted as set forth in Santos (2021) Allergy, 76:2420-2432. Blood from six healthy donors was drawn and Compound 128 was added at various concentrations (10 μM, 3.16 μM, 1 μM, 0.3 μM, 0.1 μM, 0.03 μM, or 0 μM). Blood samples were gently rocked at room temperature for 2 hours, 24 hours, or 48 hours. The BAT assay using the Flow Cast Basophil Activation Kit (Buhlmann Diagnostics; Catalog #B-CCR-STCON) was then conducted following manufacturer instructions by (1) stimulating the blood with anti-FcεR stimulation control in stimulation buffer with IL-3 and staining cells for CCR3 and CD63 for 15 minutes at 37° C., (2) lysing red blood cells and fixing cells with Lysing Reagent at room temperature for 10 minutes, (3) washing cells with Wash Buffer, and (4) acquiring data on a flow cytometer. Activated basophils were defined as CCR3+, low side scatter and CD63+. Percent of activated basophils was calculated as number of activated basophils over the total number of basophils. A four-parameter logistic regression was applied to determine the EC50 and EC90. […]
The BAT assay measuring CD63 used the Flow Cast Basophil Activation Kit method and percent activated basophils were calculated as described in Example 1. Percent inhibition of CD63 activation was calculated as (100−(Sample condition−Unstimulated DMSO control)/(Stimulated DMSO control−Unstimulated DMSO control)×100).

The subject of another assay is IL-4. Put plainly: Anti-IgE induced IL-4 production from basophils in whole blood. The assay is classed as cell-based, human. The note with it: whole blood from a healthy donor, treated two hours, anti-IgE six hours. The protocol: Human mast cells lines, ROSA with wildtype KIT and ROSA […] with D816V KIT mutation (ISM-like cells), were licensed from CRNS Innovation and cultured with or without stem cell factor (100 ng/mL), respectively (FIG. 12A). ROSA cells were stimulated with IL-4 (20 ng/mL; R&D Systems) for 18 hours, stained for FcεRIα(Becton Dickinson) for 30 minutes on ice, washed twice with FACS buffer and data was acquired on a flow cytometer. The median fluorescence intensity of FcεRIα was measured. […] Whole blood from a healthy donor was treated with Compound 128 for two hours and the basophils were stimulated with anti-IgE (1 μg/mL; Beckman Coulter) for six hours (FIG. 12B). Plasma was collected and IL-4 levels were measured using the BD CBA human soluble protein master buffer kit and BD CBA human soluble protein flex set for IL-4 (Becton Dickinson). A four-parameter logistic regression analysis was performed on the cytokine levels to determine the EC50 and EC90. […] Therefore, Compound 128 may indirectly effect FcεRI expression by the reduction of IL-4 levels.

In the next assay the target is BTK (Homo sapiens, UniProt Q06187). Put plainly: MRGPRX2-induced BTK phosphorylation in ISM-like mast cells. Format: cell-based. On the set-up: endogenous in cells; host or cells: Primary human mast cells differentiated from bone marrow CD34+ cells of healthy donors, cultured with SCF. Particulars: 0.1 μM; C48/80 stimulation. The method, then:
Human mast cells were differentiated from bone marrow CD34+ cells from four healthy donors and were cultured in the presence of SCF (100 ng/mL) to mimic mast cells in ISM and treated with Compound 128 for two hours prior to stimulation. Mas-related G protein-coupled receptor (MRGPRX2) agonists, Compound 48/80 (C48/80; a product of N-methyl-p-methoxyphenethylamine with formaldehyde) or Substance P (SP) were used to activate the MRGPRX2 pathway. For pBTK test, cells were stimulated with C48/80 (10 μg/mL) for ten minutes at 37° C. and cells were stained. The median fluorescence intensity of phosphorylated BTK was measured. The fold change over unstimulated control for pBTK was calculated. For cytokine test, cells were stimulated with C48/80 (10 μg/mL) or SP (30 μM) for four hours at 37° C. Supernatant was collected and cytokine levels were measured using the BD Cytometric Bead Array (CBA) human soluble protein master buffer kit (Becton Dickinson) and BD CBA human soluble protein flex sets for IL-8, MCP-1, GM-CSF and IL-13 (Becton Dickinson). Cytokine levels were measured and normalized to percent of control, with 0% representing the level of the unstimulated control.

Assay [2] deals with basophils. Put plainly: Comparison of BTK inhibitors by BAT (CD63 and CD203c). The assay is classed as cell-based, human. Particulars: concentration of 1 μM; 2 hours; blood from a healthy donor. The method, then:
The BAT assay using the Flow Cast Basophil Activation Kit (Buhlmann Diagnostics; Catalog #B-CCR-STCON) was then conducted following manufacturer instructions by (1) stimulating the blood with anti-FcεR stimulation control in stimulation buffer with IL-3 and staining cells for CCR3 and CD63 for 15 minutes at 37° C., (2) lysing red blood cells and fixing cells with Lysing Reagent at room temperature for 10 minutes, (3) washing cells with Wash Buffer, and (4) acquiring data on a flow cytometer. Activated basophils were defined as CCR3+, low side scatter and CD63+. Percent of activated basophils was calculated as number of activated basophils over the total number of basophils. A four-parameter logistic regression was applied to determine the EC50 and EC90.
Blood samples were gently rocked at room temperature for 2 hours. […] Activated basophils were also defined as CCR3+, low side scatter and CD203c+.

For another assay, the system named is mast cells. Put plainly: Potency across healthy and ISM mast cells (FIG. 16). The assay is classed as cell-based. The note with it: presence of SCF; CD63, CD203, pBTK, histamine, calcium flux. The protocol:
Healthy BM-MC donor 0166 and ISM WB-MC 1061-004 17 Jan. 2024 and 17 Oct. 2024. Experiments performed in the presence of SCF. Sensitization and Stimulation: NP-IgE (100 ng/mL) 18 hrs, NP-BSA (0.5 ng/mL) for 15 min at 37° C. (CD63, CD203, pBTK and histamine) or 4 min at RT (Calcium Flux).
(Calcium assays in cells follow changes in intracellular calcium, usually with a dye or a luminescent sensor.)

Chain of BTK (Q06187 whole entry): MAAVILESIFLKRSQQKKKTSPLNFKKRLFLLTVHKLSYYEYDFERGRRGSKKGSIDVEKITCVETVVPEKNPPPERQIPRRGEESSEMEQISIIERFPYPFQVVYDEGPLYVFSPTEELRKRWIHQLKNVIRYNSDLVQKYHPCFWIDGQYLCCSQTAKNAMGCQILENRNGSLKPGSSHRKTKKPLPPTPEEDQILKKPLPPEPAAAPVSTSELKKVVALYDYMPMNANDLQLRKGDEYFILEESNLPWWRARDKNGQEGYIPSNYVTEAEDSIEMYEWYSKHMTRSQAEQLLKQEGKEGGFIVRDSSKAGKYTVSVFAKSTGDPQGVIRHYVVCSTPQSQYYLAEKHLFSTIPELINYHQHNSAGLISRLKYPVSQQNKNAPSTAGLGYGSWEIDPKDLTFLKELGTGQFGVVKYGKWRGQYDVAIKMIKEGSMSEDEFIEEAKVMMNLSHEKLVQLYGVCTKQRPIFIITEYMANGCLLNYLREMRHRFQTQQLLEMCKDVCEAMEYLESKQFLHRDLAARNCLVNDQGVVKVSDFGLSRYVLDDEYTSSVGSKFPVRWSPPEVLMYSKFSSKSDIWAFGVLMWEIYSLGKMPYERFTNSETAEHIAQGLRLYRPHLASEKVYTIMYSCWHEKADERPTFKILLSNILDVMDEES

Regarding `C=CC(=O)N1CCC(F)(CNc2ncnc(N)c2-c2ccc(Oc3ccccc3)cc2)CC1` [Compound 128, 1-(4-(((6-amino-5-(4-phenoxyphenyl)pyrimidin-4-yl)amino)methyl)-4-fluoropiperidin-1-yl)prop-2-en-1-one], the “inhibition of basophil activation” value in the assay with basophils [1] (ISM patients, 100 mg or 150 mg BID) is listed as “effective in inhibiting basophil activation”. Besides, the “percent inhibition of CD63 activation of basophils, dose dependence” value in the assay on basophils [1] (ISM patients, 50, 75, 100 or 150 mg BID) is on record as “greater inhibition of basophil activation is achieved in ISM patients with greater dosing”. Also, the “IgE-mediated IL-4 production” value in the assay on IL-4 is “potently inhibited”. Besides, the “MRGPRX2-induced BTK phosphorylation” value at BTK is reported as “inhibited”. In addition, the “effect on basophil activation (CD63+, CD203c+)” value in the assay with basophils [2] is listed as “fully inhibits basophil activation”. In addition, in the assay on mast cells, the “potency across healthy mast cells and ISM mast cells” value is recorded as “equipotent”.
